{"source": "PubChem BioAssay AID1259407", "about": "(Chemical Carcinogenesis Research Information System (CCRIS), 2018)", "tested_on": "CCRIS mutagenicity, Ames/micronucleus/aberration tests", "assay": "CCRIS mutagenicity studies", "key": {"[1]": {"details": "Test System: AMES SALMONELLA TYPHIMURIUM, Strain/Indicator: TA98(1,8-DNP6), Metabolic Activation: NONE, Method: STANDARD PLATE"}, "[2]": {"details": "Test System: AMES SALMONELLA TYPHIMURIUM, Strain/Indicator: TA98(NR), Metabolic Activation: NONE, Method: STANDARD PLATE"}, "[3]": {"details": "Test System: AMES SALMONELLA TYPHIMURIUM, Strain/Indicator: TA98, Metabolic Activation: NONE, Method: PREINCUBATION"}, "[4]": {"details": "Test System: AMES SALMONELLA TYPHIMURIUM, Strain/Indicator: TA98, Metabolic Activation: NONE, Method: STANDARD PLATE"}, "[5]": {"details": "Test System: AMES SALMONELLA TYPHIMURIUM, Strain/Indicator: TA98, Metabolic Activation: RAT, LIVER, S-9, AROCLOR 1254, Method: STANDARD PLATE"}, "[6]": {"details": "Test System: AMES SALMONELLA TYPHIMURIUM, Strain/Indicator: TA100, Metabolic Activation: NONE, Method: STANDARD PLATE"}}, "note": "Calls of active or inactive are those of the source. The rule behind the calls is not given here.", "data": [{"smiles": "Cc1ccc(N=O)cc1[N+](=O)[O-]", "values": [{"measurement": "mutagenic call", "setting": "Test System: AMES SALMONELLA TYPHIMURIUM, Strain/Indicator: TA98, Metabolic Activation: NONE, Method: SUSPENSION/PLATE", "value": "inactive; negative"}, {"measurement": "mutagenic call", "setting": "Test System: AMES SALMONELLA TYPHIMURIUM, Strain/Indicator: TA98, Metabolic Activation: RAT, LIVER, S-9, PHENOBARBITAL AND 5,6-BENZOFLAVONE, Method: SUSPENSION/PLATE", "value": "inactive; negative"}, {"measurement": "mutagenic call", "setting": "Test System: AMES SALMONELLA TYPHIMURIUM, Strain/Indicator: TA100, Metabolic Activation: NONE, Method: SUSPENSION/PLATE", "value": "inactive; negative"}, {"measurement": "mutagenic call", "setting": "Test System: AMES SALMONELLA TYPHIMURIUM, Strain/Indicator: TA100, Metabolic Activation: RAT, LIVER, S-9, PHENOBARBITAL AND 5,6-BENZOFLAVONE, Method: SUSPENSION/PLATE", "value": "inactive; negative"}]}, {"smiles": "CN(C)Nc1ccn([C@@H]2O[C@H](CO)[C@@H](O)[C@H]2O)c(=O)n1", "values": [{"measurement": "mutagenic call", "setting": "Test System: CHINESE HAMSTER V-79, Strain/Indicator: V-79/6-THIOGUANINE, Metabolic Activation: NONE, Method: REPLATING", "value": "inactive; negative"}]}, {"smiles": "O=C1c2ccccc2-c2ccc([N+](=O)[O-])cc21", "values": [{"measurement": "mutagenic call", "setting": "Test System: AMES SALMONELLA TYPHIMURIUM, Strain/Indicator: TA98 (1,8-DNP6), Metabolic Activation: NONE, Method: PREINCUBATION", "value": "active; positive"}, {"measurement": "mutagenic call", "setting": "[1]", "value": "active; positive"}, {"measurement": "mutagenic call", "setting": "Test System: AMES SALMONELLA TYPHIMURIUM, Strain/Indicator: TA98 (NR), Metabolic Activation: NONE, Method: PREINCUBATION", "value": "active; positive"}, {"measurement": "mutagenic call", "setting": "[2]", "value": "active; positive"}, {"measurement": "mutagenic call", "setting": "Test System: AMES SALMONELLA TYPHIMURIUM, Strain/Indicator: TA98(NR), Metabolic Activation: RAT LIVER S-9 (10%), Method: PREINCUBATION", "value": "active; positive"}, {"measurement": "mutagenic call", "setting": "Test System: AMES SALMONELLA TYPHIMURIUM, Strain/Indicator: TA98(NR), Metabolic Activation: RAT LIVER S-9, 3-METHYLCHOLANTHRENE (10%), Method: PREINCUBATION", "value": "active; positive"}, {"measurement": "mutagenic call", "setting": "Test System: AMES SALMONELLA TYPHIMURIUM, Strain/Indicator: TA98(NR), Metabolic Activation: RAT LIVER S-9, BETA-NAPHTHAFLAVONE (10%), Method: PREINCUBATION", "value": "active; positive"}, {"measurement": "mutagenic call", "setting": "Test System: AMES SALMONELLA TYPHIMURIUM, Strain/Indicator: TA98(NR), Metabolic Activation: RAT LIVER S-9, PCB (10%), Method: PREINCUBATION", "value": "active; positive"}, {"measurement": "mutagenic call", "setting": "Test System: AMES SALMONELLA TYPHIMURIUM, Strain/Indicator: TA98(NR), Metabolic Activation: RAT LIVER S-9, PHENOBARBITAL (10%), Method: PREINCUBATION", "value": "active; positive"}, {"measurement": "mutagenic call", "setting": "[3]", "value": "active; positive"}, {"measurement": "mutagenic call", "setting": "[4]", "value": "active; positive"}, {"measurement": "mutagenic call", "setting": "[5]", "value": "active; positive"}, {"measurement": "mutagenic call", "setting": "[6]", "value": "active; positive"}, {"measurement": "mutagenic call", "setting": "Test System: AMES SALMONELLA TYPHIMURIUM, Strain/Indicator: TA100, Metabolic Activation: RAT, LIVER, S-9, AROCLOR 1254, Method: STANDARD PLATE", "value": "active; positive"}, {"measurement": "mutagenic call", "setting": "Test System: AMES SALMONELLA TYPHIMURIUM, Strain/Indicator: TA1538, Metabolic Activation: NONE", "value": "active; positive"}, {"measurement": "mutagenic call", "setting": "Test System: AMES SALMONELLA TYPHIMURIUM, Strain/Indicator: TA7001, Metabolic Activation: NONE, Method: PREINCUBATION", "value": "inactive; negative"}, {"measurement": "mutagenic call", "setting": "Test System: AMES SALMONELLA TYPHIMURIUM, Strain/Indicator: TA7002, Metabolic Activation: NONE, Method: PREINCUBATION", "value": "active; positive"}, {"measurement": "mutagenic call", "setting": "Test System: AMES SALMONELLA TYPHIMURIUM, Strain/Indicator: TA7003, Metabolic Activation: NONE, Method: PREINCUBATION", "value": "inactive; negative"}, {"measurement": "mutagenic call", "setting": "Test System: AMES SALMONELLA TYPHIMURIUM, Strain/Indicator: TA7004, Metabolic Activation: NONE, Method: PREINCUBATION", "value": "active; positive"}, {"measurement": "mutagenic call", "setting": "Test System: AMES SALMONELLA TYPHIMURIUM, Strain/Indicator: TA7005, Metabolic Activation: NONE, Method: PREINCUBATION", "value": "active; positive"}, {"measurement": "mutagenic call", "setting": "Test System: AMES SALMONELLA TYPHIMURIUM, Strain/Indicator: TA7006, Metabolic Activation: NONE, Method: PREINCUBATION", "value": "active; positive"}, {"measurement": "mutagenic call", "setting": "Test System: AMES SALMONELLA TYPHIMURIUM, Strain/Indicator: YG7131, Metabolic Activation: NONE", "value": "active; positive"}]}, {"smiles": "COc1cc2c(c3oc4cccc(OC(C)=O)c4c(=O)c13)C1C=COC1O2", "note": "(stereo not drawn)", "values": [{"measurement": "mutagenic call", "setting": "Test System: AMES SALMONELLA TYPHIMURIUM, Strain/Indicator: TA98, Metabolic Activation: RAT, LIVER, S-9, PHENOBARBITAL, Method: STANDARD PLATE", "value": "inactive; negative"}, {"measurement": "mutagenic call", "setting": "Test System: AMES SALMONELLA TYPHIMURIUM, Strain/Indicator: TA100, Metabolic Activation: RAT, LIVER, S-9, PHENOBARBITAL, Method: STANDARD PLATE", "value": "active; positive"}]}, {"smiles": "C=CCSSSCC=C", "values": [{"measurement": "mutagenic call", "setting": "Test System: UDS RAT HEPATOCYTES, Strain/Indicator: THY INCORP, Metabolic Activation: NONE, Method: AUTORADIOGRAPHY", "value": "inactive; negative"}]}, {"smiles": "O=Nc1ccc2ccc3c4ccccc4cc4ccc1c2c43", "values": [{"measurement": "mutagenic call", "setting": "Test System: AMES SALMONELLA TYPHIMURIUM, Strain/Indicator: TA98 (1,8-DNP6), Metabolic Activation: NONE, Method: STANDARD PLATE", "value": "active; positive"}, {"measurement": "mutagenic call", "setting": "Test System: AMES SALMONELLA TYPHIMURIUM, Strain/Indicator: TA98 (NR), Metabolic Activation: NONE, Method: STANDARD PLATE", "value": "active; positive"}, {"measurement": "mutagenic call", "setting": "[4]", "value": "active; positive"}, {"measurement": "mutagenic call", "setting": "Test System: CHINESE HAMSTER OVARY, Strain/Indicator: CHO-K1-BH4 (HGPRT), Metabolic Activation: NONE", "value": "active; positive"}]}, {"smiles": "NC(N)=NCCCC(N)C(=O)O", "note": "(stereo not drawn)", "values": [{"measurement": "mutagenic call", "setting": "Test System: AMES SALMONELLA TYPHIMURIUM, Strain/Indicator: TA98, Metabolic Activation: RAT LIVER S-9, CHLOROPHENE, Method: STANDARD PLATE (COMPOUND HEATED AT 250 DEGREES CELSIUS FOR 20 MIN)", "value": "active; positive"}, {"measurement": "mutagenic call", "setting": "Test System: Ames Salmonella typhimurium, Strain/Indicator: TA98, Metabolic Activation: Rat, Liver, S9, Aroclor 1254, assay without cofactors, Method: Preincubation", "value": "inactive; negative"}, {"measurement": "mutagenic call", "setting": "Test System: Ames Salmonella typhimurium, Strain/Indicator: TA98, Metabolic Activation: Rat, Liver, S9, Aroclor 1254, heat inactivated, Method: Preincubation", "value": "inactive; negative"}, {"measurement": "mutagenic call", "setting": "Test System: Ames Salmonella typhimurium, Strain/Indicator: TA98, Metabolic Activation: Rat, Liver, S9, Aroclor 1254, Method: Preincubation", "value": "active; positive. statistically significant at 2 highest doses."}]}, {"smiles": "O=[N+]([O-])c1ccc2c3c(cccc13)-c1cc(O)ccc1-2", "values": [{"measurement": "mutagenic call", "setting": "[1]", "value": "inactive; negative"}, {"measurement": "mutagenic call", "setting": "[2]", "value": "active; positive"}, {"measurement": "mutagenic call", "setting": "[4]", "value": "active; positive"}, {"measurement": "mutagenic call", "setting": "[5]", "value": "active; positive"}, {"measurement": "mutagenic call", "setting": "Test System: AMES SALMONELLA TYPHIMURIUM, Strain/Indicator: TA100(NR), Metabolic Activation: NONE, Method: STANDARD PLATE", "value": "inactive; negative"}, {"measurement": "mutagenic call", "setting": "Test System: AMES SALMONELLA TYPHIMURIUM, Strain/Indicator: TA100(TN5-1,8-DNP1012), Metabolic Activation: NONE, Method: STANDARD PLATE", "value": "inactive; negative"}, {"measurement": "mutagenic call", "setting": "[6]", "value": "active; positive"}]}, {"smiles": "O=[N+]([O-])c1ccccc1SS/C(Cl)=C(\\Cl)C(Cl)=C(Cl)Cl", "values": [{"measurement": "mutagenic call", "setting": "Test System: AMES SALMONELLA TYPHIMURIUM, Strain/Indicator: TA100(DNP6), Metabolic Activation: NONE, Method: PREINCUBATION", "value": "active; positive"}, {"measurement": "mutagenic call", "setting": "Test System: AMES SALMONELLA TYPHIMURIUM, Strain/Indicator: TA100(NR), Metabolic Activation: NONE, Method: PREINCUBATION", "value": "active; positive"}]}, {"smiles": "CCCCc1c(N)ccc2ccccc12", "values": [{"measurement": "mutagenic call", "setting": "[4]", "value": "inactive; negative"}, {"measurement": "mutagenic call", "setting": "Test System: AMES SALMONELLA TYPHIMURIUM, Strain/Indicator: TA98, Metabolic Activation: RAT LIVER S-9, AROCLOR, Method: STANDARD PLATE", "value": "active; positive"}, {"measurement": "mutagenic call", "setting": "[6]", "value": "inactive; negative"}, {"measurement": "mutagenic call", "setting": "Test System: AMES SALMONELLA TYPHIMURIUM, Strain/Indicator: TA100, Metabolic Activation: RAT LIVER S-9, AROCLOR, Method: STANDARD PLATE", "value": "active; positive"}]}, {"smiles": "Nc1ccc(Cc2cc(O)c(N)c(Cl)c2)cc1Cl", "values": [{"measurement": "mutagenic call", "setting": "[3]", "value": "inactive; negative"}, {"measurement": "mutagenic call", "setting": "Test System: AMES SALMONELLA TYPHIMURIUM, Strain/Indicator: TA100, Metabolic Activation: NONE, Method: PREINCUBATION", "value": "inactive; negative"}]}]}
